Results reported in publication PMC8400540, “Synthesis, Biological Evaluation, and In Silico Studies of New Acetylcholinesterase Inhibitors Based on Quinoxaline Scaffold” (Molecules, 2021).
Like-named read-outs stand apart in the source and are kept apart here.

Tests used:
[1] = target: T1, human recombinant acetylcholinesterase (HuAChE) (Homo sapiens, UniProt P22303); assay: biochemical; conditions: for Selectivity BChE/AChE: Selectivity index for AChE: IC50 BChE/IC50 AChE
T1 construct: purchased Sigma-Aldrich
T1 sequence (P22303 32-614): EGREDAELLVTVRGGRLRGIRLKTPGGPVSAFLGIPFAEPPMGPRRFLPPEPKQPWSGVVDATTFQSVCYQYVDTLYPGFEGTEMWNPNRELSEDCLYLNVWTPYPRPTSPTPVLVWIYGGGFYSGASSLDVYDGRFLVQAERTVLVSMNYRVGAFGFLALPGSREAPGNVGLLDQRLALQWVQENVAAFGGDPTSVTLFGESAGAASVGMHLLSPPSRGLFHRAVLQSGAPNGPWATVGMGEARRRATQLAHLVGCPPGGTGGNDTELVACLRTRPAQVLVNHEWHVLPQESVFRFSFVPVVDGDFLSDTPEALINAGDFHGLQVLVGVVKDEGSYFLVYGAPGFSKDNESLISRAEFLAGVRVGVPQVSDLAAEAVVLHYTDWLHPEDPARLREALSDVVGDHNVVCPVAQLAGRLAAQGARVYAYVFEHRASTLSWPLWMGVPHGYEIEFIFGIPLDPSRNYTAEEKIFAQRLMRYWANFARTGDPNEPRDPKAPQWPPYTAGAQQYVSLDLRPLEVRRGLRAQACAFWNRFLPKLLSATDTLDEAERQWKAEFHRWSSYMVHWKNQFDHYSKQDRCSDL

[2] = target: T2, butyrylcholinesterase from equine serum (EqBChE) (Equus caballus, UniProt P81908); assay: biochemical; format: biochemical; conditions: for IC50: EqBChE, n = three independent experiments; for IC50 / inhibition at 100 µM: mean ± SD; for inhibition at 100 µM: n = three, read-out: %Inhibition BChE; for butyrylcholinesterase inhibitory activity (in words): screened at 100 µM
T2 construct: butyrylcholinesterase from equine serum (eqBChE); purchased Sigma-Aldrich; host or cells: equine serum
T2 sequence (P81908 whole entry): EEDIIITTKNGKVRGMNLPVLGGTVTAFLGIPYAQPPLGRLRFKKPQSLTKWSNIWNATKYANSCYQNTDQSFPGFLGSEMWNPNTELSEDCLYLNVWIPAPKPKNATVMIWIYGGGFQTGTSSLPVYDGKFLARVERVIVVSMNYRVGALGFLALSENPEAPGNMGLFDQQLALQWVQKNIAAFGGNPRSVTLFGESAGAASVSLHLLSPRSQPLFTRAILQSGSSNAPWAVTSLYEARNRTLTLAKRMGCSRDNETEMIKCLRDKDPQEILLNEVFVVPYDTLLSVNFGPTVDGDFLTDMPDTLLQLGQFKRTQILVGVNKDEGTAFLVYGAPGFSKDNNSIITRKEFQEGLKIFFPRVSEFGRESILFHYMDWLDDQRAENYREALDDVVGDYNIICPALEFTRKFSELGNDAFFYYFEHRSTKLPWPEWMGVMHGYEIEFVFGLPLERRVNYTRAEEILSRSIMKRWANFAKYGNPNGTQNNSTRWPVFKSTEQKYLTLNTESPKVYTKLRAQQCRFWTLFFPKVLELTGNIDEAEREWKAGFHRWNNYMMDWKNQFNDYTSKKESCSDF
Description: Initially, acetylcholinesterase and butyrylcholinesterase inhibitory activities of the compounds were screened at the concentration of 100 µM. […] The raw data of IC50 in this study were able to be accessed in Supplementary Materials.
Human recombinant acetylcholinesterase (HuAChE), butyrylcholinesterase from equine serum (eqBChE), acetylthiocholine iodide (ATCI), butyrylthiocholine iodide (BTCI) and 5,5′-dithiobis(2-nitrobenzoic acid) (DTNB) were gained from Sigma-Aldrich. Assays of acetyl- and butyrylcholinesterase inhibitory activity were performed according to Ellman’s method described previously. Briefly, these assays were performed as follows. The reaction mixture (250 µL), containing 50 µL of buffer (50 mM Tris-HCl buffer (pH 8.0), 0.1 M NaCl, 0.02 M MgCl2.6H2O), 25 µL of 1.5 mM of ATCI or BTCI, 25 µL of 100 µM of test compounds in EtOH and 125 µL of 3 mM DTNB were added. Then, 25 µL of HuAChE and equine serum of BChE in 50 mM Tris-HCl buffer containing 0.1% (w/v) BSA (pH 8.0). Reactions were initiated by the addition of the enzyme into the medium. […] Each experiment was repeated in triplicate.
The percentage of enzyme inhibitory activity (%Inhibition) was calculated by the following expression: %Inhibition = ((Mean velocity of blank-Mean velocity of sample) × 100)/Mean velocity of blank.

[3] = Cytotoxicity, sulforhodamine B (SRB) assay; format: cell-based; conditions: human, SH-SY5Y neuroblastoma cells, up to 100 µM, read-out: LC50
Description: Selected compounds in the series were then evaluated for their cytotoxicity against SH-SY5Y neuron cells. […].
Figure 3 The cytotoxic effect of synthesized compounds on SH-SY5Y cells as determined by SRB assay. Cells were treated with the synthesized compounds at different concentrations for 48 h, and then SRB assay was performed. Data are means ± SD of three independent experiments, and %cell viability was calculated relative to nontreated control.
The cytotoxicity assay of the tested compounds against human SH-SY5Y neuroblastoma cells was measured using a sulforhodamine B (SRB) assay. The cells were cultured in Dulbecco’s modified Eagle’s medium supplemented with 10% fetal bovine serum (Gibco, Paisley, UK) and grown at 37 °C in a humid atmosphere containing 5% CO2. Cells (10,000 cells/well) were seeded in a 96-well plate and incubated at 37 °C, 5% CO2 for 24 h. The cells were then treated with or without various concentrations (0, 3.125, 6.25, 12.5, 25, 50, and 100 μM) of each compound for 48 h. After an incubation period, 40% (w/v) trichloroacetic acid (TCA) was added to the cells, and the cells were then incubated at 4 °C for 1 h. A total of 0.4% (w/v) SRB solution (100 μL) was added to each well, and the cells were incubated for 1 h at room temperature. The SRB solution was removed, and then the cells were washed three times with 1% (v/v) acetic acid, and they were allowed to dry at room temperature. The protein-bound dye was dissolved with 10 mM Tris base solution, and the absorbance was measured at 492 nm using a microplate reader.

Human recombinant AChE = target: T3, Human recombinant AChE (Homo sapiens, UniProt P22303); assay: Enzyme kinetic study of AChE inhibition (Lineweaver-Burk); format: biochemical
T3 construct: purchased Sigma-Aldrich
T3 sequence (P22303 32-614): as the sequence (P22303 32-614) above
Description: […]. The kinetic assay of AChE inhibition was carried out at 0, 30, 50 and 60 µM of compound 6c. […]. [ATCI], substrate concentration (µM); V, reaction velocity (1/V (abs/min)^−1).
Kinetic studies of HuAChE were performed by Ellman’s method as described above. […]. Kinetic characterization of the hydrolysis of ATCI for HuAChE was carried out spectrometrically at 405 nm every 11 s for 2 min. A parallel control was run with the assay solution without inhibitor. The inhibition was evaluated by Lineweaver–Burk plot from substrate concentrations range between 10 to 250 µM for ATCI and inhibitor concentrations (0, 30, 50, 60 µM). The type of inhibition (competitive, uncompetitive, noncompetitive and mixed type inhibition) was calculated from the Michaelis–Menten equation was converted to Lineweaver–Burk equation into a straight line by plotting 1/velocity opposite to 1/[S]. Graphs were plotted by means of GraphPad Prism 7.03 for Windows (GraphPad Software, San Diego, CA, USA, www.graphpad.com, accessed on 13 May 2021).
From obtained equations of regression curves in the Lineweaver-Burk plot, the values of maximum velocity (Vm) and Michealis constant (Km) were calculated. Using non-linear regression (selected panel: enzyme kinetic inhibition/ mixed model inhibition) the values of Ki and alpha were determined. The alpha value defines the mechanism. […]

[4] = HuAChE, mean ± SD, n = three independent experiments, read-out: IC50 AChE

Row | Structure (SMILES) | IC50 [1] [µM] | Selectivity BChE/AChE [1] | IC50 [2] [µM] | IC50 [1, 4] [µM] | inhibition at 100 µM [2] [%] | butyrylcholinesterase inhibitory activity (in words) [2] | further results
1 | c1ccc2nccnc2c1 [Compound 3a, Quinoxaline] | 13.2 ± 4.1 | 3.07 | 40.6 ± 1.6 | – | – | – | –
2 | c1ccc(-c2cnc3ccccc3n2)cc1 [Compound 3b, 2-Phenylquinoxaline] | – | 0.29 | 14.9 ± 2.6 | 50.1 ± 2.6 | – | – | –
3 | Cc1nc2ccccc2nc1C [Compound 3c, 2,3-Dimethylquinoxaline] | 7.25 ± 1.5 | – | – | – | 23.4 | no activity | –
4 | Clc1ccc2nccnc2c1 [Compound 4a, 6-Chloroquinoxaline] | 23.9 ± 1.3 | – | – | – | 37.4 | – | –
5 | Clc1ccc2ncc(-c3ccccc3)nc2c1 [Compound 4b, 7-Chloro-2-phenylquinoxaline] | – | – | – | 28.5 ± 1.6 | 41.2 | – | –
6 | Cc1nc2ccc(Cl)cc2nc1C [Compound 4c, 6-Chloro-2,3-dimethylquinoxaline] | – | – | – | 10.7 ± 1.4 | 37.4 | no activity | –
7 | O=[N+]([O-])c1ccc2nccnc2c1 [Compound 5a, 6-Nitroquinoxaline] | – | 1.97 | 42 ± 1 | 21.3 ± 1.5 | – | – | –
8 | O=[N+]([O-])c1ccc2ncc(-c3ccccc3)nc2c1 [Compound 5b, 7-Nitro-2-phenylquinoxaline] | – | 1.56 | 61 ± 3.4 | 39 ± 0.8 | – | – | –
9 | Cc1nc2ccc([N+](=O)[O-])cc2nc1C [Compound 5c, 2,3-Dimethyl-6-nitroquinoxaline] | – | – | – | 8.42 ± 1.8 | 32.1 | no activity | –
10 | Nc1ccc2nccnc2c1 [Compound 6a, Quinoxalin-6-amine] | 0.74 ± 0.5 | – | – | – | 32.9 | – | CC50 at 48 h [3]: > 100 µM
11 | Nc1ccc2ncc(-c3ccccc3)nc2c1 [Compound 6b, 3-Phenylquinoxalin-6-amine] | – | – | – | 1.31 ± 0.2 | 44.1 | – | CC50 at 48 h [3]: > 100 µM
12 | Cc1nc2ccc(N)cc2nc1C [Compound 6c, 2,3-Dimethylquinoxalin-6-amine] | – | – | – | 0.077 ± 0.01 | 29.2 | no activity | CC50 at 48 h [3]: > 100 µM; type of AChE inhibition (Human recombinant AChE; Lineweaver-Burk plot): mixed-type inhibitor; Alpha (Human recombinant AChE; non-linear regression, mixed model inhibition): 0.1875
